Results as given in ChEMBL document CHEMBL5608174, “Synthesis and biological evaluation of 4-phenyl-5-quinolinyl substituted isoxazole analogues as potent cytotoxic and tubulin polymerization inhibitors against ESCC” (Eur J Med Chem, 2024).
The source made the active and inactive calls. The rule behind the calls is not given here.

How the values were obtained:
KYSE-30 [1] = experiment: Induction of apoptosis in human KYSE-30 cells assessed as late apoptotic cells at 20 nmol/L incubated for 48 hrs by Annexin V-FITC/PI staining based flow cytometry analysis (reference value: 5.27 %); type: functional
KYSE-70 cell line [2] = experiment: Inhibition of cell migration in human KYSE-70 cells at 2 to 6 nmol/L incubated upto 48 hrs by wound healing assay; type: functional, cell-based; conditions: dose 2-6 nmol/L
KYSE-30 [3] = experiment: Inhibition of human KYSE-30 cells proliferation at 5 to 20 nmol/L incubated for 48 hrs by real time cellular analysis; type: functional, cell-based; conditions: dose 5-20 nmol/L
KYSE-70 cell line [4] = experiment: Induction of apoptosis in human KYSE-70 cells assessed as early apoptotic cells at 5 nmol/L incubated for 48 hrs by Annexin V-FITC/PI staining based flow cytometry analysis (reference value: 1.78%); type: functional
[5] = Toxicity in female BALB/c-nu nude mouse xenografted with human KYSE-30 cells assessed as effect on serum blood urea nitrogen level at 6 to 12 mg/kg, ip administered for 15 days by biochemical analysis; type: organism-based; conditions: in vivo, 360 h, dose 6-12 mg/kg, time 15 day
KYSE-30 [6] = experiment: Effect on nuclear replication in human KYSE-30 cells at 5 to 20 nmol/L incubated for 24 hrs by DAPI staining based fluorescence microscopic analysis; type: functional, cell-based; conditions: dose 5-20 nmol/L
KYSE-30 [7] = experiment: Induction of morphological changes in human KYSE-30 cells assessed as deformation at 5 to 20 nmol/L incubated for 48 hrs by Bright field microscopic analysis; type: functional, cell-based; conditions: dose 5-20 nmol/L
KYSE-30 [8] = experiment: Inhibition of colony formation in human KYSE-30 cells at 4 nmol/L incubated for 7 days by crystal violet staining based analysis; type: functional, cell-based; conditions: time 7.0 day
KYSE-30 [9] = system: KYSE-30
Description: Antiproliferative activity against human KYSE-30 cells assessed as inhibition of cell proliferation incubated for 48 hrs by MTT assay

KYSE-30 [10] = experiment: Induction of apoptosis in human KYSE-30 cells assessed as early apoptotic cells at 5 nmol/L incubated for 48 hrs by Annexin V-FITC/PI staining based flow cytometry analysis (reference value: 4.38 %); type: functional
[11] = Toxicity in female BALB/c-nu nude mouse xenografted with human KYSE-30 cells assessed as change in kidney pathology at 6 to 12 mg/kg, ip administered for 15 days by H and E staining based analysis; type: organism-based; conditions: in vivo, 360 h, dose 6-12 mg/kg, time 15 day
KYSE-30 [12] = experiment: Induction of apoptosis in human KYSE-30 cells assessed as late apoptotic cells at 10 nmol/L incubated for 48 hrs by Annexin V-FITC/PI staining based flow cytometry analysis (reference value: 5.27 %); type: functional
Tubulin (Homo sapiens) [13] = biological target: T1, Tubulin (Homo sapiens) (UniProt P68371+Q9H4B7+P0DPH7+P68366+Q13509+Q71U36+P04350+Q3ZCM7+P07437+P68363+Q9BQE3+Q6PEY2+Q13885+Q9BVA1+Q9BUF5); experiment: Inhibition of tubulin polymerization in human KYSE-30 cells assessed as reduction in filamentous microtubule structure formation at 5 to 20 nmol/L incubated for 24 hrs by DAPI staining based fluorescence microscopic analysis; type: cell-based; conditions: dose 5-20 nmol/L
[14] = Toxicity in female BALB/c-nu nude mouse xenografted with human KYSE-30 cells assessed as effect on serum AST level at 6 to 12 mg/kg, ip administered for 15 days by biochemical analysis; type: organism-based; conditions: in vivo, 360 h, dose 6-12 mg/kg, time 15 day
[15] = Toxicity in female BALB/c-nu nude mouse xenografted with human KYSE-30 cells assessed as effect on serum creatinine level at 6 to 12 mg/kg, ip administered for 15 days by biochemical analysis; type: organism-based; conditions: in vivo, 360 h, dose 6-12 mg/kg, time 15 day
MGC-803 = experiment: Antiproliferative activity against human MGC-803 cells assessed as inhibition of cell proliferation incubated for 48 hrs by MTT assay; type: functional, cell-based; conditions: MGC-803, 48 h
KYSE-70 cell line [16] = experiment: Induction of cell cycle arrest in human KYSE-70 cells assessed as accumulation of cells at G2/M phase at 10 nmol/L by PI staining based flow cytometric analysis; type: functional
[17] = system: Esophageal squamous cell carcinoma cell; experiment: Induction of apoptosis in human Esophageal squamous cell carcinoma cell assessed as […] of Bax level at 5 to 20 nmol/L incubated for 48 hrs by Western blot analysis; type: functional, cell-based; conditions: dose 5-20 nmol/L
KYSE-70 cell line [18] = experiment: Antiproliferative activity against human KYSE-70 cells assessed as inhibition of cell growth incubated for 48 hrs by MTT assay; type: functional, cell-based; conditions: KYSE-70, 48 h
Tubulin (Homo sapiens) [19] = biological target: T1, Tubulin (Homo sapiens); experiment: Inhibition of tubulin polymerization in human KYSE-70 cells assessed as multinucleation of cells at 5 to 20 nmol/L incubated for 24 hrs by DAPI staining based fluorescence microscopic analysis; type: cell-based; conditions: dose 5-20 nmol/L
KYSE-30 [20] = experiment: Induction of morphological changes in human KYSE-30 cells assessed as fragmentation at 5 to 20 nmol/L incubated for 48 hrs by Bright field microscopic analysis; type: functional, cell-based; conditions: dose 5-20 nmol/L
KYSE-70 cell line [21] = experiment: Induction of apoptosis in human KYSE-70 cells assessed as early apoptotic cells at 10 nmol/L incubated for 48 hrs by Annexin V-FITC/PI staining based flow cytometry analysis (reference value: 1.78%); type: functional
KYSE-30 [22] = experiment: Induction of morphological changes in human KYSE-30 cells assessed as decrease in cell density at 5 to 20 nmol/L incubated for 48 hrs by Calcein AM/PI staining based inverted fluorescence microscopic analysis; type: functional; conditions: dose 5-20 nmol/L
KYSE-450 = experiment: Antiproliferative activity against human KYSE-450 cells assessed as inhibition of cell growth incubated for 48 hrs by MTT assay; type: functional, cell-based; conditions: KYSE-450, 48 h
[23] = system: Esophageal squamous cell carcinoma cell; experiment: Induction of apoptosis in human Esophageal squamous cell carcinoma cell assessed as increase in caspase-9 activation at 5 to 20 nmol/L incubated for 48 hrs by Western blot analysis; type: functional, cell-based; conditions: dose 5-20 nmol/L
KYSE-30 [24] = experiment: Induction of cell cycle arrest in human KYSE-30 cells assessed as accumulation of cells at G2/M phase at 10 nmol/L by PI staining based flow cytometric analysis; type: functional
[25] = Toxicity in female BALB/c-nu nude mouse xenografted with human KYSE-30 cells assessed as effect on serum uric acid level at 6 to 12 mg/kg, ip administered for 15 days by biochemical analysis; type: organism-based; conditions: in vivo, 360 h, dose 6-12 mg/kg, time 15 day
Tubulin (Homo sapiens) [26] = biological target: T1, Tubulin (Homo sapiens); experiment: Inhibition of tubulin polymerization in human KYSE-70 cells assessed as reduction in filamentous microtubule structure formation at 5 to 20 nmol/L incubated for 24 hrs by DAPI staining based fluorescence microscopic analysis; type: cell-based; conditions: dose 5-20 nmol/L
KYSE-70 cell line [27] = experiment: Induction of apoptosis in human KYSE-70 cells assessed as early apoptotic cells at 20 nmol/L incubated for 48 hrs by Annexin V-FITC/PI staining based flow cytometry analysis (reference value: 1.78%); type: functional
KYSE-70 cell line [28] = experiment: Inhibition of human KYSE-70 cells proliferation at 5 to 20 nmol/L incubated for 48 hrs by real time cellular analysis; type: functional, cell-based; conditions: dose 5-20 nmol/L
KYSE-270 = experiment: Antiproliferative activity against human KYSE-270 cells assessed as inhibition of cell growth incubated for 48 hrs by MTT assay; type: functional, cell-based; conditions: KYSE-270, 48 h
[29] = system: Esophageal squamous cell carcinoma cell; experiment: Induction of apoptosis in human Esophageal squamous cell carcinoma cell assessed as increase in cleaved-PARP level at 5 to 20 nmol/L incubated for 48 hrs by Western blot analysis; type: functional, cell-based; conditions: dose 5-20 nmol/L
[30] = Cytotoxicity against HUVEC cells assessed as inhibition of cell growth incubated for 48 hrs by MTT assay; type: toxicity, cell-based; conditions: human
KYSE-30 [31] = experiment: Induction of morphological changes in human KYSE-30 cells assessed as increase in proportion of dead cells at 5 to 20 nmol/L incubated for 48 hrs by Calcein AM/PI staining based inverted fluorescence microscopic analysis; type: functional, cell-based; conditions: dose 5-20 nmol/L

In the case of COc1ccc(-c2cnoc2-c2cc(C)nc3ccccc23)cc1, the Activity (KYSE-30 [1]) is reported as 10.13%, the inhibition (KYSE-70 cell line [2]) is reported as “Active” and the inhibition (KYSE-30 [3]) is reported as “Active”. For the same molecule, the Activity (KYSE-70 cell line [4]) was 8.24%, the Activity [5] was “Non-Toxic” and the Activity (KYSE-30 [6]) was “inactive”. The Activity (KYSE-30 [7]) was “Active”, the inhibition (KYSE-30 [8]) was “Active” and the IC50 (KYSE-30 [9]) was 0.0131 µM. For the same molecule, the Activity (KYSE-30 [10]) was 46.64%, the Activity [11] was “Non-Toxic” and the Activity (KYSE-30 [12]) was 11.91%. For the same molecule, the inhibition (Tubulin (Homo sapiens) [13]) was “Active”, the Activity [14] was “Non-Toxic” and the Activity [15] was “Non-Toxic”. The IC50 (MGC-803) was 0.014 µM, the Activity (KYSE-70 cell line [16]) was “Active” and the Activity [17] was “Active”. The IC50 (KYSE-70 cell line [18]) was 0.00779 µM, the inhibition (Tubulin (Homo sapiens) [19]) was “Active” and the Activity (KYSE-30 [20]) was “Active”. The Activity (KYSE-70 cell line [21]) was 28.93%, the Activity (KYSE-30 [22]) was “Active” and the IC50 (KYSE-450) was 0.0192 µM. For the same molecule, the Activity [23] was “Active”, the Activity (KYSE-30 [24]) was “Active” and the Activity [25] was “Non-Toxic”. For the same molecule, the inhibition (Tubulin (Homo sapiens) [26]) was “Active”, the Activity (KYSE-70 cell line [27]) was 30.31% and the inhibition (KYSE-70 cell line [28]) was “Active”. For the same molecule, the IC50 (KYSE-270) was 0.0418 µM, the Activity [29] was “Active” and the IC50 at 48 h [30] was over 0.71 µM. The Activity (KYSE-30 [31]) was “Active”.
